Assay results: ChEMBL document CHEMBL1134166, “The identification of alpha-ketoamides as potent inhibitors of hepatitis C virus NS3-4A proteinase” (Bioorg Med Chem Lett, 2001)
*1 amine or outer side, *2 acyl side, *3 side chain or, on linkers, in order; H or OH if unused. Where a SMILES comes first, the peptide text is derived from it. [ ]: non-standard residue; d: D form. The star is where a group is joined. X1 = O=C(C(=O)[*:2])[C@H](CC(F)(F)F)N[*:1]; NH(1S-phenylpropyl) = CC[C@H](N*)c1ccccc1; NH(1R-phenylethyl) = C[C@@H](N*)c1ccccc1; NH(1S-phenylethyl) = C[C@H](N*)c1ccccc1; Phe(2-Me) = Cc1ccccc1C[C@H](N)C(=O)O; NleCONH2 = CCCC[C@H](N*)C(=O)C(N)=O; NH(4-OH-benzyl) = Oc1ccc(CN*)cc1; X3 = CCCC[C@@H](N*)C(=O)C(N)=O; X5 = CC[C@H](N*)c1ccc2ccccc2c1; X6 = C[C@H](N*)c1ccc2ccccc2c1; Suc = O=C(CCC(=O)[*:2])[*:1]; Tle = CC(C)(C)[C@H](N)C(=O)O; X4 = CC(C)[C@H](N*)c1ccccc1; NHBn = c1ccc(CN*)cc1; X2 = COc1cccc(CN*)c1

How the values were obtained:
[1] = target: Hepatitis C virus serine protease, NS3/NS4A (Hepatitis C virus, UniProt A3EZI9+D2K2A8); assay: (§1) Inhibition of hepatitis c virus Non structural protein 3 protease/Non structural protein 4A protease; type: protein-complex assay, Hepacivirus hominis
Trypsin = Trypsin (Homo sapiens, UniProt P07477+P07478+P35030); assay: Compound was tested for inhibition of trypsin; type: protein assay
Neutrophil elastase = target: T1, Neutrophil elastase (Homo sapiens, UniProt P08246); assay: Compound was tested for inhibition of Elastase
T1 sequence (P08246 whole entry): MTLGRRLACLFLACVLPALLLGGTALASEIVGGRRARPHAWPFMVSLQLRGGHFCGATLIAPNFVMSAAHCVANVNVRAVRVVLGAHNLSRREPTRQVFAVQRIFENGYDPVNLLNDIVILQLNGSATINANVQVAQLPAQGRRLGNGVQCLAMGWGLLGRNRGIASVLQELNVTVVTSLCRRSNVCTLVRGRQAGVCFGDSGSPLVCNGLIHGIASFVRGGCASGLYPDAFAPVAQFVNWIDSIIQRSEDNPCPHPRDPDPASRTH

[2] = target: Hepatitis C virus serine protease, NS3/NS4A (Hepatitis C virus, UniProt D2K2A8+A3EZI9); assay: as §1; type: protein-complex assay, Hepacivirus hominis
Chain of Hepatitis C virus serine protease, NS3/NS4A (Hepatitis C virus, UniProt D2K2A8+A3EZI9) (D2K2A8 whole entry): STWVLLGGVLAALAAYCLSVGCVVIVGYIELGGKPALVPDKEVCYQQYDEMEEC
Chain of Hepatitis C virus serine protease, NS3/NS4A (Hepatitis C virus, UniProt D2K2A8+A3EZI9) (A3EZI9 whole entry): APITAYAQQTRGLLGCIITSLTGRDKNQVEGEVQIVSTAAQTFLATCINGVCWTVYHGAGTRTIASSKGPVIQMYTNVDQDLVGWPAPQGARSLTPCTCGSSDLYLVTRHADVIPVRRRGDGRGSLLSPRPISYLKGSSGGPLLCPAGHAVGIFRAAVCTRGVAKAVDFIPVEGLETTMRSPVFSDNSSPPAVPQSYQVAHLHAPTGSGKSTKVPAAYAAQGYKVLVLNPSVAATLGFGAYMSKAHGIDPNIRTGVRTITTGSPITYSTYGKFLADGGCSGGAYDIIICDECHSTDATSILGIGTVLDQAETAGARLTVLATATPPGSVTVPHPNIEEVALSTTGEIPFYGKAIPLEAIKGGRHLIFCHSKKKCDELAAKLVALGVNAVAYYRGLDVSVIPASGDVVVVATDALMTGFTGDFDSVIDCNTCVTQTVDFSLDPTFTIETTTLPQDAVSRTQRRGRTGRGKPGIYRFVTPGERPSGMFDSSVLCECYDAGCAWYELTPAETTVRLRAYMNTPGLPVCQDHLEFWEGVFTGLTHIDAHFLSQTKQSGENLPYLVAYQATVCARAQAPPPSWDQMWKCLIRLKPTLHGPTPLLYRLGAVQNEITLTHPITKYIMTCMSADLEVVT

Chain of Hepatitis C virus serine protease, NS3/NS4A (Hepatitis C virus, UniProt A3EZI9+D2K2A8) (D2K2A8 whole entry): as the sequence (D2K2A8 whole entry) above
Chain of Hepatitis C virus serine protease, NS3/NS4A (Hepatitis C virus, UniProt A3EZI9+D2K2A8) (A3EZI9 whole entry): as the sequence (A3EZI9 whole entry) above

IC50 [2] [nM] | Compound | also measured
7 | Cc1ccccc1C[C@H](NC(=O)[C@H](CCC(=O)O)NC(=O)[C@H](CC(=O)O)NC(=O)CCC(=O)O)C(=O)N[C@H](C(=O)N[C@@H](CC(C)C)C(=O)N[C@@H](CC(F)(F)F)C(=O)C(=O)N[C@H](c1ccccc1)C(C)C)C(C)(C)C (Suc-DE[Phe(2-Me)][Tle]L[X1]-X4) | –
4 | Cc1ccccc1C[C@H](NC(=O)[C@H](CCC(=O)O)NC(=O)[C@H](CC(=O)O)NC(=O)CCC(=O)O)C(=O)N[C@H](C(=O)N[C@@H](CC(C)C)C(=O)N[C@@H](CC(F)(F)F)C(=O)C(=O)N[C@@H](C)c1ccccc1)C(C)(C)C (Suc-DE[Phe(2-Me)][Tle]L[X1]-{NH(1S-phenylethyl)}) | –
7 | CC[C@H](NC(=O)C(=O)[C@H](CC(F)(F)F)NC(=O)[C@H](CC(C)C)NC(=O)[C@@H](NC(=O)[C@H](Cc1ccccc1C)NC(=O)[C@H](CCC(=O)O)NC(=O)[C@H](CC(=O)O)NC(=O)CCC(=O)O)C(C)(C)C)c1ccccc1 (Suc-DE[Phe(2-Me)][Tle]L[X1]-{NH(1S-phenylpropyl)}) | –
4 | Cc1ccccc1C[C@H](NC(=O)[C@H](CCC(=O)O)NC(=O)[C@H](CC(=O)O)NC(=O)CCC(=O)O)C(=O)N[C@H](C(=O)N[C@@H](CC(C)C)C(=O)N[C@@H](CC(F)(F)F)C(=O)C(=O)NCc1ccc(O)cc1)C(C)(C)C (Suc-DE[Phe(2-Me)][Tle]L[X1]-{NH(4-OH-benzyl)}) | –

The remaining lines, values behind:

Compound | IC50 [2] [nM] | also measured
CCCC[C@H](NC(=O)[C@H](CC(C)C)NC(=O)[C@@H](NC(=O)[C@H](Cc1ccccc1C)NC(=O)[C@H](CCC(=O)O)NC(=O)[C@H](CC(=O)O)NC(=O)CCC(=O)O)C(C)(C)C)C(=O)C(N)=O (Suc-DE[Phe(2-Me)][Tle]L-NleCONH2) | – | IC50 [1]: 11 nM; IC50 (Trypsin): > 200 µM
CCCC[C@@H](NC(=O)[C@H](CC(C)C)NC(=O)[C@@H](NC(=O)[C@H](Cc1ccccc1C)NC(=O)[C@H](CCC(=O)O)NC(=O)[C@H](CC(=O)O)NC(=O)CCC(=O)O)C(C)(C)C)C(=O)C(N)=O (Suc-DE[Phe(2-Me)][Tle]L-X3) | – | IC50 (Neutrophil elastase): 12 µM
Cc1ccccc1C[C@H](NC(=O)[C@H](CCC(=O)O)NC(=O)[C@H](CC(=O)O)NC(=O)CCC(=O)O)C(=O)N[C@H](C(=O)N[C@@H](CC(C)C)C(=O)N[C@@H](CC(F)(F)F)C(=O)C(=O)NCc1ccccc1)C(C)(C)C (Suc-DE[Phe(2-Me)][Tle]L[X1]-NHBn) | 4 | –
COc1cccc(CNC(=O)C(=O)[C@H](CC(F)(F)F)NC(=O)[C@H](CC(C)C)NC(=O)[C@@H](NC(=O)[C@H](Cc2ccccc2C)NC(=O)[C@H](CCC(=O)O)NC(=O)[C@H](CC(=O)O)NC(=O)CCC(=O)O)C(C)(C)C)c1 (Suc-DE[Phe(2-Me)][Tle]L[X1]-X2) | 6 | –
CC[C@H](NC(=O)C(=O)[C@H](CC(F)(F)F)NC(=O)[C@H](CC(C)C)NC(=O)[C@@H](NC(=O)[C@H](Cc1ccccc1C)NC(=O)[C@H](CCC(=O)O)NC(=O)[C@H](CC(=O)O)NC(=O)CCC(=O)O)C(C)(C)C)c1ccc2ccccc2c1 (Suc-DE[Phe(2-Me)][Tle]L[X1]-X5) | 8 | –
Cc1ccccc1C[C@H](NC(=O)[C@H](CCC(=O)O)NC(=O)[C@H](CC(=O)O)NC(=O)CCC(=O)O)C(=O)N[C@H](C(=O)N[C@@H](CC(C)C)C(=O)N[C@@H](CC(F)(F)F)C(=O)C(=O)N[C@@H](C)c1ccc2ccccc2c1)C(C)(C)C (Suc-DE[Phe(2-Me)][Tle]L[X1]-X6) | 4 | –
Cc1ccccc1C[C@H](NC(=O)[C@H](CCC(=O)O)NC(=O)[C@H](CC(=O)O)NC(=O)CCC(=O)O)C(=O)N[C@H](C(=O)N[C@@H](CC(C)C)C(=O)N[C@@H](CC(F)(F)F)C(=O)C(=O)N[C@H](C)c1ccccc1)C(C)(C)C (Suc-DE[Phe(2-Me)][Tle]L[X1]-{NH(1R-phenylethyl)}) | 1100 | –
